Tested on: 3′UTR of fog2 mRNA
Assay: luciferase assay with wild-type or mutated miR-200 target sites of FOG2 3′UTR
Assay type: cell-based, human
Conditions: Hela cell lines, compared to siGFP
Procedure: The inventors examined whether human miR-200 family miRNAs regulate the expression by directly binding to 3′ UTR of fog2 mRNA in the same manner as drosophila miR-8 miRNA regulates the expression by directly binding to 3′ UTR of ush mRNA. Specifically, in order to obtain cDNA of FOG2, represented by SEQ ID: 110, from K562 cell lines, total RNA was extracted using RNeasy mini kit (QIAGEN, US). Then, 1 μg of total RNA and 1 μl of Oligo-dT (Invitrogen, US) were charged with up to 50 μl of distilled water, and placed into SuperScript First-Strand Synthesis System (Invitrogen, US), followed by RT-PCR reaction. […] By using pCK-FOG2, primers noted in Table 8, and QuickChange Site-Directed Mutagenesis kit, one (FOG2 m1, FOG2 m2, FOG2 m3), two ((FOG2 m12, FOG2 m23) or three (FOG2 m123) mutants were introduced into three miR-200 target sites of FOG2 3′UTR. Hela cell lines were transfected with wild-type FOG2(FOG2 wt), FOG2 ml, FOG2 m2, FOG2 m3, FOG2 m12, FOG2 m23 or FOG2 m123, together with renilla luciferase expression vector and synthesized siGFP, miR-141/200a or miR-200b/c/429. Then, the activity of luciferase was measured in the same manner as described in Example 8-2. The synthesized miRNA include a mixture of the same levels of miRNAs including respective seed sequences. […]

| Substance | expression of luciferase, FOG2 3′UTR |
| --- | --- |
| 5′-UAACACUGUCUGGUAAAGAUGG-3′ (listed as RNA, chemistry not given here) [miR-141] | suppressed the expression of luciferase, albeit less effectively than the other members did |
| 5′-UAACACUGUCUGGUAACGAUGU-3′ (listed as RNA, chemistry not given here) [miR-200a] | suppressed the expression of luciferase, albeit less effectively than the other members did |

— patent US20130011845A1, “MICRORNA REGULATING THE INSULIN SIGNALING PATHWAY, AND METHOD FOR SCREENING MATERIAL FOR CONTROLLING THE ACTION OF A TARGET THEREOF” (SNU R & DB Foundation, priority 2009, published 2013)
